The first test deals with rabbit normal intraocular pressure. Briefly: Intraocular pressure reducing action (Test Example 3). It counts as in vivo, Japanese white rabbit. The note with it: Oryctolagus cuniculus, topical; 3 mM aqueous solution, 50 μl to the left eye; max difference of left and right eyes at 2, 4 and 6 hours relative to value before administration; read-out: Intraocular pressure reducing degree. The protocol:
A Japanese white rabbit having a body weight of about 2 kg was placed in a positioner and naturalized for one week before the experiment. An ophthalmologic local anesthesant (Benoxil) was administered to both eyes, and then intraocular pressure was measured by using a tonometer (Classic 30, Solan). A 3 mM aqueous solution of a test compound was administered in a volume of 50 μl to the left eye, and the right eye was not treated (control eye). The intraocular pressure values were measured for the left and right eyes immediately before, and 2, 4 and 6 hours after the administration of the aqueous solution of the test compound, and the difference of the measured values for the left and right eyes was considered an intraocular pressure reduction value of the test medicament at each measurement time. The largest difference of the values for the left and right eyes among the measured values at the measurement times (after 2, 4 and 6 hours) was considered the maximum intraocular pressure reduction value (max ? IOP) of each test medicament. The intraocular pressure reducing degree representing the intraocular pressure reducing action of each test medicament was calculated according to the following formula. Since rabbits show significant daily variation of intraocular pressure, daily variation is added when change of intraocular pressure is measured over time, and the intraocular pressure reducing action may be overestimated. Therefore, we used this calculation method of intraocular pressure reduction value in order to minimize the influence of the variation. Intraocular pressure reducing degree(%)=(max ? IOP/Intraocular pressure value immediately before administration)×100
Regarding `Cn1cccc1CNC1CCN(S(=O)(=O)c2cccc3cncc(Br)c23)C1` (stereo not drawn) [Example 1-20], the inhibition in vivo at 3000 µM lay in the range of 10 to 20%.

In the case of `CN[C@H]1CCN(S(=O)(=O)c2cccc3cncc(Cl)c23)C1` [Example 19-3, (S)-1-(4-Chloro-5-isoquinolinesulfonyl)-3-(methylamino)pyrrolidine], the inhibition in vivo at 3000 µM is no less than 20%.

`Cc1cncc2cccc(S(=O)(=O)N3CCC(NC4CCCC4)C3)c12` (stereo not drawn) [Example 8-29]: the inhibition in vivo at 3000 µM fell in the range of 5 to 10%.

In the case of `Cc1nc(CNC2CCN(S(=O)(=O)c3cccc4cncc(Br)c34)C2)c[nH]1` (stereo not drawn) [Example 1-19], the inhibition in vivo at 3000 µM lay within 5 to 10%.

As to `Cc1cncc2cccc(S(=O)(=O)N3CCC(NC(C)C)C3)c12` (stereo not drawn) [Example 8-27], the inhibition in vivo at 3000 µM lay in the range of 10 to 20%.

With `Cc1cncc2cccc(S(=O)(=O)N3CCC(NC4CCCCC4)C3)c12` (stereo not drawn) [Example 8-30], the inhibition in vivo at 3000 µM lay within 5 to 10%.

For `O=S(=O)(c1cccc2cncc(Cl)c12)N1CC[C@H](NCc2ccco2)C1` [Example 19-14], the inhibition in vivo at 3000 µM lay within 5 to 10%.

Take `Cn1cccc1CN[C@H]1CCN(S(=O)(=O)c2cccc3cncc(Cl)c23)C1` [Example 19-21]: the inhibition in vivo at 3000 µM was no less than 20%.

For the molecule `Cc1cncc2cccc(S(=O)(=O)N3CCC(NCCc4ccccc4)C3)c12` (stereo not drawn) [Example 8-37], the inhibition in vivo at 3000 µM lay within 5 to 10%.

`Cc1cncc2cccc(S(=O)(=O)N3CCC(NC4CCOCC4)C3)c12` (stereo not drawn) [Example 8-31]: the inhibition in vivo at 3000 µM was 10 to 20%.

With `O=S(=O)(c1cccc2cncc(Cl)c12)N1CC[C@H](NCc2cccs2)C1` [Example 19-17], the inhibition in vivo at 3000 µM lay within 5 to 10%.

Take `CN[C@H]1CCN(S(=O)(=O)c2cccc3cncc(C)c23)C1` [Example 8-3]: the inhibition in vivo at 3000 µM was no less than 20%.

Regarding `Cc1cncc2cccc(S(=O)(=O)N3CCC(NCCN)C3)c12` (stereo not drawn) [Example 8-32], the inhibition in vivo at 3000 µM was 5 to 10%.

Regarding `NCCNC1CCN(S(=O)(=O)c2cccc3cncc(Br)c23)C1` (stereo not drawn) [Example 1-31], the inhibition in vivo at 3000 µM lay within 10 to 20%.

In the case of `O=S(=O)(c1cccc2cncc(Cl)c12)N1CC[C@H](NC2CCOCC2)C1` [Example 19-31], the inhibition in vivo at 3000 µM was no less than 20%.

As to `C#Cc1cncc2cccc(S(=O)(=O)N3CC[C@H](NC4CCOCC4)C3)c12` [Example 10-31], the inhibition in vivo at 3000 µM was no less than 20%.

Turning to `C=CCNC1CCN(S(=O)(=O)c2cccc3cncc(C)c23)C1` (stereo not drawn) [Example 8-34], the inhibition in vivo at 3000 µM lay in the range of 5 to 10%.

Consider `Cc1cncc2cccc(S(=O)(=O)N3CCC(NC4CCC4)C3)c12` (stereo not drawn) [Example 8-28], for which the inhibition in vivo at 3000 µM lay within 5 to 10%.

For `CN[C@H]1CCN(S(=O)(=O)c2cccc3cncc(Br)c23)C1` [Example 1-3, (S)-1-(4-Bromo-5-isoquinolinesulfonyl)-3-(methylamino)pyrrolidine], the inhibition in vivo at 3000 µM is no less than 20%.

Turning to `COc1ccc(CN[C@H]2CCN(S(=O)(=O)c3cccc4cncc(Br)c34)C2)cc1` [Example 1-7], the inhibition in vivo at 3000 µM lay in the range of 5 to 10%.

For the molecule `CCN[C@H]1CCN(S(=O)(=O)c2cccc3cncc(Cl)c23)C1` [Example 19-4], the inhibition in vivo at 3000 µM was no less than 20%.

Take `C#Cc1cncc2cccc(S(=O)(=O)N3CC[C@H](NCc4ccco4)C3)c12` [Example 10-14]: the inhibition in vivo at 3000 µM was 5 to 10%.

The test system of another test is monkey intraocular pressure. In words: Intraocular pressure reduction enhancing action in monkey (Test Example 8). Format: in vivo. To be noted: cynomolgus monkey, 30 μL latanoprost (Xalatan) then 30 μL 19-1 compound aqueous solution, compared with single drug groups. The method, then:
As for the test compound used for combination use, similar effect can be obtained also with the compounds of the present invention represented with the example numbers mentioned in Test Example 3. The test is performed by using cynomolgus monkeys sufficiently naturalized for the operation of fixation on a monkey chair and intraocular pressure measurement.
As the test compound, the 19-1 compound was dissolved in physiological saline, and the solution is neutralized by addition of sodium hydroxide (pH 7.0 to 8.0) to prepare a 0.01 weight % aqueous solution (19-1 compound aqueous solution). As a drug for combination use, latanoprost (trade name: Xalatan, Pfizer) is used as the marketed formulation per se. The test aqueous solution or the drug for combination use is instilled to the left eye, and the right eye is not treated (control eye). […] After initial intraocular pressure values of the monkeys are measured for each group, 30 μL of physiological saline is instilled to the control group, single drug group 1, and single drug group 2, and latanoprost is instilled in the same volume to the combination use group. […] Then, the intraocular pressure is measured over time for each group.
As for `N[C@H]1CCN(S(=O)(=O)c2cccc3cncc(Cl)c23)C1` [Example 19-1, (S)-3-Amino-1-(4-chloro-5-isoquinolinesulfonyl)pyrrolidine], the “Intraocular pressure reducing action, combination use group” value was “exceeding those of both the single drug group 1 and single drug group 2”.

Staying with this test, now noted: cynomolgus monkey, 30 μL of 0.01 weight % aqueous solution, compared with control group.
For `N[C@H]1CCN(S(=O)(=O)c2cccc3cncc(Cl)c23)C1` [Example 19-1, (S)-3-Amino-1-(4-chloro-5-isoquinolinesulfonyl)pyrrolidine], the “Intraocular pressure reducing action, single drug group 1” value was “exceeding that of the control group”.

The values above are taken from patent publication US8415372B2, “Sulfonamide compound” (Asahi Kasei Pharma Corporation, priority 2007, dated 2013).
